Data on 1 compound can be found in patent publication US9963474B2, “Mitochondria-targeted dicarbonyl sequestering compounds” (MEDICAL RESEARCH COUNCIL, priority 2013, dated 2018).

The nature of data set [1]: Reaction rate with glyoxal (fluorometric kinetics). Conditions: 37° C., means±SE, n=3. The procedure:
(A) The reactions between MitoG (100 μM) and 1,2-dicarbonyls (25 μM) at 37° C. were followed from the formation of the quinoxaline products at 345 nm. (B) Fluorimetric detection of the reaction between MitoG and methylglyoxal (40 μM each), and between MitoG and glyoxal (200 μM each) was observed by monitoring the quinoxaline products at excitation and emission wavelengths of 344 and 433 nm, respectively. The changes in fluorescence caused by MQE and QE formation was quantified from calibration curves constructed by plotting fluorescence (excitation and emission wavelengths of 344 and 433 nm, respectively) against known amounts of either quinoxaline and were linear up to at least 20 μM.
TPP-conjugated compounds were made up as 10 mM stock solutions in DMSO, flushed with argon and stored as aliquots at −20° C. […] The molar extinction coefficients were calculated from the absorbance at maximal absorption (λmax) for the compounds for solutions of known concentration. Reaction rates between MitoG and 1,2-dicarbonyls were determined from the initial linear slope over the first 30 s at the λmax for the formation of the relevant quinoxaline. Fluorescence spectra were obtained in 2.5 ml KCl buffer using a Shimadzu RF-301PC fluorimeter with slit widths of 3 nm. […]

In data set [2] the test system is C2C12 cells. Briefly: Cell survival, MTS assay, C2C12. It is filed as cell-based, mouse. Conditions: C2C12, 24 h. As to the method:
(A, B) RLM respiring on glutamate/malate at 37° C. were incubated with various concentrations of MitoG for 7 min in an oxygen electrode to measure coupled respiration (A) before ADP was added to measure phosphorylating respiration (B). Data are the percentage of the respiration rates of untreated controls (dashed lines). (C and D) C2C12 cells (C) or BAECs [Bovine Aortic Endothelial Cells; Cell Applications Inc, San Diego, Calif.] (D) were incubated with MitoG for 24 h and cell survival was then determined using the MTS assay. Data are expressed as a percentage of the untreated controls (dashed line). (E-H) BAECs were incubated with MitoG for 2 h at 37° C. and the cellular oxygen consumption rate (OCR) after the sequential additions of oligomycin, FCCP and antimycin A/rotenone were then measured using a Seahorse XF24 analyser. (E) OCR due to ATP synthesis, (F) OCR due to proton leak, (G) reserve capacity and (H) non-mitochondrial oxygen consumption. Results are means±S.E. of three independent experiments. *, P<0.05 or **, P<0.01 relative to untreated controls.
To assess cell viability, C2C12 cells or BAECs were seeded at a density of 10,000 cells/well and 40,000 cells/well, respectively, in 96-well plates. […] After 2 h absorbance was read at 490 nm in a plate reader (SpectraMax Plus 384, Molecular Devices). […]
On the technique in general: Tetrazolium assays rely on reduction of a dye to a coloured formazan, in cell work by metabolically active cells.

The subject of data set [3] is C2C12 cells. Briefly: Protection against dicarbonyl-induced cell death, C2C12, MTS assay. It is filed as cell-based, mouse. Conditions: pre-treated 1 h, overnight. The procedure: (§1) Isolated RLM respiring on glutamate/malate were incubated with MitoG, methoxyphenylenediamine (MP) or butylTPP for 2 min, followed by 0.5 mM methylglyoxal or 5 mM glyoxal for 5 min. ADP was then added and the rate of oxygen consumption monitored at 37° C. (see FIGS. 12A & 12B). C2C12 cells were pre-treated with MitoG, methoxyphenylenediamine (MP) or butylTPP for 1 h before exposure to 1 mM methylglyoxal or 5 mM glyoxal (see FIGS. 12C & 12D). Following an overnight incubation, cell survival was determined using the MTS assay. Similar experiments were conducted in BAECs pre-treated with MitoG, MP or butylTPP. For all experiments, concentrations of methylglyoxal and glyoxal used were chosen based on results from studies conducted prior to the protection assays. In these prior studies, RLM or cells were exposed to a range of dicarbonyl concentrations, and the phosphorylating rates of respiration or cell survival were evaluated. The results of these earlier experiments are shown in insets, and dicarbonyl concentrations that had caused significant respiratory depression or cell death were chosen for use in the protection assays. Data for all groups were normalized against untreated controls. For RLM, the rate of respiration by untreated controls was taken to be 100%; for cells, cell survival of untreated controls was taken to be 100%. Results are expressed as mean±S.E. of three independent experiments. MitoG was protective against methylglyoxal-induced respiratory depression and both methylglyoxal- and glyoxal-induced cell death in C2C12 cells and BAECs. […] In FIG. 12 the symbols *, ** respectively indicate that P<0.05 or P<0.01 relative to dicarbonyl-only groups; and the symbols +, ++ respectively indicate that P<0.05 or P<0.01 relative to untreated controls.

Data set [4] concerns BAECs. Briefly: Protection against dicarbonyl-induced cell death, BAECs, MTS assay. It is filed as cell-based, bovine. Conditions: pre-treated 1 h, overnight. As to the method: as §1

Molecules are shown by their SMILES.

As to `Nc1ccc(OCCCCCC[P+](c2ccccc2)(c2ccccc2)c2ccccc2)cc1N` [MitoG, (6-(3,4-Diaminophenoxy)hexyl)triphenylphosphonium chloride], in data set [1], the “rate constant for reaction with glyoxal” value was 0.6 ± 0.3 M⁻¹ s⁻¹. Besides, the “concentration above which cell viability decreased” value in data set [2] is on record as “above 10 μM”. The “protection against methylglyoxal-induced cell death” value in data set [3] (C2C12, 1 mM methylglyoxal) was “protective”; in data set [4] it was “protective”. Also, the “protection against glyoxal-induced cell death” value is reported as “protective” in data set [3] (C2C12, 5 mM glyoxal) and “protective” in data set [4].
